{"source": "patent US20230172877A1", "about": "“METABOLITES RELEASED FROM APOPTOTIC CELLS ACT AS NOVEL TISSUE MESSENGERS” (University of Virginia Patent Foundation, priority 2020, published 2023)", "key": {"Panx1": {"biological_target": "T1, Panx1 (Homo sapiens, UniProt Q96RD7)", "T1 construct": "host or cells: Jurkat E6.1 T cells (wild type), apoptotic", "T1 sequence (Q96RD7 1-379 limits assumed)": "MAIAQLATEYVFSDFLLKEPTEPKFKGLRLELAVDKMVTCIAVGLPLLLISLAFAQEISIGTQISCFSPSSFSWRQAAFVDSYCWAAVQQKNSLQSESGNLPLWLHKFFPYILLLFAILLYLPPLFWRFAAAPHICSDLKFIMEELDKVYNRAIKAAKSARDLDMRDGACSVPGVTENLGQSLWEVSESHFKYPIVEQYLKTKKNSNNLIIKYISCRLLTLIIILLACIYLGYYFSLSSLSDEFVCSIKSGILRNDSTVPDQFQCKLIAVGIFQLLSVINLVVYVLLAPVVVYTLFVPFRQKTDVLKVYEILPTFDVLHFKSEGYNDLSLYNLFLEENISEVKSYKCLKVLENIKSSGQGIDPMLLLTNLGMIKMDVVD", "assay": "Panx1-dependent metabolite release from apoptotic Jurkat T cells with Panx1 inhibitors", "type": "cell-based", "conditions": "UV-induced apoptosis; spironolactone 50 µM, trovafloxacin 25 µM", "description": "Apoptosis induction. Wild type Jurkat E6.1 (ATCC) or dominant negative Pannexinl-expressing (Panxl-DN)^10 cells were resuspended in RPMI-1640 containing 1% BSA, 1% PSQ, and 10 mM HEPES and treated with 250 ng ml^-1 anti-Fas (clone CH11), 10 µM ABT-737, or exposed to 150 mJ cm^-2 ultraviolet C irradiation for 1-2 min (Stratalinker). Jurkat cells were incubated for 4 hours after apoptosis induction. For apoptosis induction in the presence of Panx1 inhibitors, Jurkat cells were treated with spironolactone (50 µM) or trovafloxacin (25 µM) in RPMI containing 1% BSA and 1% PSQ.\nFor untargeted metabolomics analysis through Metabolon, recovery standards were added to samples in order to monitor QC of the analysis. Samples were methanol precipitated under shaking for 2 minutes. […] Samples were analyzed under 4 different conditions; two for analysis by two separate reverse phase (RP)/UPLC-MS/MS methods with positive ion mode ESI, one for analysis by RP/UPLC-MS/MS with negative ion mode ESI, and one for analysis by HILIC/UPLC-MS/MS with negative ion mode ESI. […]\nDuring the above analyses of EXAMPLE 1, it was noted that despite the many cellular metabolites detected in the pellet, only a subset is released; further, even within a known metabolic pathway, only some but not others were released. […]"}, "arthritis": {"system": "arthritis", "conditions": "FBP alone, reference 26; cited from earlier work"}, "[1]": {"conditions": "exogenous supplementation, reference 13; cited from earlier work"}, "[2]": {"system": "Jurkat cells, A549 lung epithelial cells, and HCT116 colonic epithelial cells", "assay": "Apoptosis-dependent release of conserved metabolites (analytical kits) with or without caspase inhibition", "type": "cell-based, human", "conditions": "50 uM zVAD pre-treatment for 10 min; UV, ABT-737, TRAIL", "description": "A549 cells were treated with 10 µM ABT-737 or exposed 600mJ cm^-2 and incubated for twenty-four hours. HCT-116 cells were treated with 10 µM ABT-737 or 100 ng ml^-1 TRAIL and incubated for 24 hours. All cells were pre-treated for 10 min with 50 uM zVAD prior to apoptosis induction in indicated experiments. All cells were incubated at 37° C. with 5% CO2 for indicated times.\nMetabolite detection. Spermidine detection was measured using a colorimetric kit (Cloud-Clone Corp.) via manufacturers’ protocol. Briefly, supernatants taken from cells under specified conditions were centrifuged at 1000 x g for twenty minutes. All reagents were brought to room temperature prior to use. […] 90 µl of substrate solution was added to each well and incubated for 10 minutes at 37° C. after which 50 µl of stop solution was added, the plate was mixed and immediately measure at 450 nm on a plate reader (Flex station 3). […]\nATP was measure using a luciferase-based kit (Promega) via manufactures’ protocol. […] Luminescence was immediately measure on the Flex Station 3. […]\nGlycerol-3-phosphate and creatine were measured based on manufacturers’ protocols (Abcam). […] OD at 450 nm or fluorescence at Ex/Em 535/587 was measured for glycerol-3-phosphate and creatine, respectively.\nTo test other cell types and additional apoptotic modalities, we analyzed the release of four ‘conserved metabolites’ via analytical kits. […]"}}, "note": "Peptide text beside a SMILES is read from it. * marks the point of attachment. Cbz = O=C(OCc1ccccc1)*; CH2F = FC*", "data": [{"smiles": "CC(=O)S[C@@H]1CC2=CC(=O)CC[C@]2(C)[C@H]2CC[C@@]3(C)[C@@H](CC[C@@]34CCC(=O)O4)[C@H]12", "note": "[Spiro, spironolactone]", "values": [{"measurement": "Apoptotic metabolites in Jurkat T cell supernatants when Panx1 was inhibited", "setting": "Panx1", "value": "reduced"}]}, {"smiles": "N[C@@H]1[C@H]2CN(c3nc4c(cc3F)c(=O)c(C(=O)O)cn4-c3ccc(F)cc3F)C[C@@H]12", "note": "[Trovan, trovafloxacin]", "values": [{"measurement": "Apoptotic metabolites in Jurkat T cell supernatants when Panx1 was inhibited", "setting": "Panx1", "value": "reduced"}]}, {"smiles": "O=C(COP(=O)(O)O)[C@@H](O)[C@H](O)[C@H](O)COP(=O)(O)O", "note": "[fructose 1,6-bisphosphate (FBP), fructose 1,6-bisphosphate]", "values": [{"measurement": "Role in arthritis", "setting": "arthritis", "value": "can have ameliorative roles in arthritis"}]}, {"smiles": "NCCCCNCCCN", "note": "[spermidine]", "values": [{"measurement": "Effect on inflammation and longevity", "setting": "[1]", "value": "can reduce inflammation and improve longevity"}]}, {"smiles": "COC(=O)C[C@H](NC(=O)[C@H](C)NC(=O)[C@@H](NC(=O)OCc1ccccc1)C(C)C)C(=O)CF", "note": "[zVAD, zVAD-FMK] (Cbz-Val-Ala-Asp(OMe)-CH2F)", "values": [{"measurement": "Apoptosis-dependent release of the tested metabolites with caspase inhibition", "setting": "[2]", "value": "attenuation"}]}]}
